“Also recorded” adds a separate entry of the source.
Assays:
gastric adenocarcinoma = test: Patient survival, surgery plus adjuvant 5-FU based therapy versus surgery alone (Kaplan-Meier, Cox regression); assay type: in vivo, human; settings: for HR (95% CI): Multivariate Cox (treatment + stage)
Procedure: A study was done to determine whether there was a difference in survival among the three subtypes. In this study, cancer-specific death was considered as an event unless stated otherwise.
Data from 188 patients in the SG201 Singapore cohort for which survival information was available was analyzed.
Many of the patients in the Singapore cohort were treated with 5-FU. To investigate the effect of 5-FU treatment on patient survival, the survival of Singapore and Australian patients treated with surgery alone were compared to that of patients treated by surgery and adjuvant 5-FU based therapy.
The clinical decision on administration of 5-FU was based on multiple factors, including the patient's general health, risk of relapse (estimated largely by disease stage), treatment-related toxicities, and patient preference.
FIGS. 8A to F show Kaplan-Meier plots for surgery plus 5-FU versus surgery alone for each of the three subtypes.

[1] = tested on: gastric cancer cell lines; test: 5-FU sensitivity in vitro of gastric cancer cell lines assigned to the three subtypes by GCPred; assay type: cell-based
Source text: It was then examined whether there are differences in 5-FU sensitivity, in vitro, between gastric cancer cell lines assigned to the three subtypes.
GCPred was first used to predict the subtypes of 28 cell lines for which 5-FU GI50 values had previously been determined.

NCI-60 cell lines = test: 5-FU sensitivity of NCI-60 cell lines classified into the three subtypes by GCPred; assay type: cell-based; settings: metabolic versus invasive subtype NCI-60 cells, Wilcoxon rank sum test p=0.036
Source text: In addition, GCPred was used to classify the NCI-60 cell lines into the three subtypes.

In the case of `O=c1[nH]cc(F)c(=O)[nH]1` [5-FU, 5-fluorouracil], the “Hazard Ratio (95% CI), treatment” value (gastric adenocarcinoma; 197 patients in SG and AU cohorts, model ~subtype * treatment + stage, 5-FU vs surgery alone (=1)) was 1.437 (0.728, 2.835), the “Hazard Ratio (95% CI), subtype: treatment interaction, Invasive: 5-FU” value (gastric adenocarcinoma; 197 patients in SG and AU cohorts, model ~subtype * treatment + stage, reference Proliferative: 5-FU (=1)) was 0.722 (0.287, 1.817) and the “HR (95% CI)” value (gastric adenocarcinoma; Australian cohort, invasive subtype, 5-FU vs surgery alone (=1)) was 0.222 (0.059, 0.833). For the same compound, the “HR (95% CI)” value (gastric adenocarcinoma; Australian cohort, proliferative subtype, 5-FU vs surgery alone (=1)) was 1.938 (0.369, 10.170), the “HR (95% CI)” value (gastric adenocarcinoma; Singapore cohort, invasive subtype, 5-FU vs surgery alone (=1)) was 1.062 (0.469, 2.407) and the “HR (95% CI)” value (gastric adenocarcinoma; Singapore cohort, proliferative subtype, 5-FU vs surgery alone (=1)) was 2.105 (0.879, 5.043). For the same compound, the “Deaths among 5-FU treated patients” value (gastric adenocarcinoma; Singapore cohort, metabolic subtype) was “no deaths”, the “Hazard ratio (95% CI)” value (gastric adenocarcinoma; Univariate Cox regression, Singapore cohort, all subtypes, 5-FU vs surgery alone (=1), cancer-specific death) was 1.656 (0.983, 2.788) and the “5-FU effect on patient survival” value (gastric adenocarcinoma; invasive subtype) was “No effect”. For the same compound, the “5-FU effect on patient survival” value (gastric adenocarcinoma; metabolic subtype) was “Beneficial”, the “Survival, Kaplan-Meier, surgery plus 5-FU versus surgery alone” value (gastric adenocarcinoma; metabolic-subtype patients) was “benefited; also recorded: better” and the “Disease-free survival, Kaplan-Meier, 5-FU treatment compared to surgery alone” value (gastric adenocarcinoma; metabolic-subtype patients, log rank test p=0.025) was “benefited significantly”. For the same compound, the “Benefit from 5-FU treatment by multivariate Cox regression” value (gastric adenocarcinoma; patients with invasive and proliferative subtypes) was “does not suggest any benefit”, the “Survival, Kaplan-Meier, surgery plus 5-FU versus surgery alone” value (gastric adenocarcinoma; patients with invasive and proliferative subtypes, not adjusted for TNM stage) was “worse” and the “5-FU effect on patient survival” value (gastric adenocarcinoma; proliferative subtype) was “No effect”. For the same compound, the “Sensitivity to 5-FU (GI50 values previously determined)” value ([1]; 28 cell lines, metabolic versus proliferative subtype cells, Wilcoxon rank sum test p=1.47×10-3) was “significantly more sensitive”, the “Chemosensitivity in cell lines” value ([1]; metabolic subtype cell lines) was 5-FU and the “Sensitivity to 5-FU” value (NCI-60 cell lines) was “preferential sensitivity”.
